Assay results from patent EP4101442A1, “PROCESS FOR PREPARING COMPACTED COENZYME Q10 PARTICLES OF HIGH DENSITY AND IMPROVED FLOWABILITY” (Tradichem Industrial Services, S.L., priority 2021, dated 2022).
Read-outs that look alike come from different tables or passages of the source.

Key:
Format in all cases: physicochemical
[1] = Tapped density (PT-TD200 Tap Density Tester)
Protocol: On the other hand, tapped density, also called compacted density, of a powder is the ratio of the mass of the powder to the volume occupied by the powder after it has been tapped for a defined period of time. Tapped density is measured by first gently introducing a known sample mass into a graduated cylinder and carefully levelling the powder without compacting it. The cylinder is then mechanically tapped by raising the cylinder and allowing it to drop under its own weight using a suitable mechanical tapped density tester that provides a suitable fixed drop distance and nominal drop rate
(§1) Bulk density and tapped density can be measured according to the method disclosed in the European Pharmacopoeia section 2.9.34 (Bulk density and tapped density of powders), for example, the bulk density may be measured using the PT-SV100 Scott Volumeter and the tapped density may be measured using the PT-TD200 Tap Density Tester (Pharma Test Apparatebau AG, Germany).
(§2) The bulk density was measured using a PT-SV100 Scott Volumeter (Pharma Test) and the tapped density was measured using a PT-TD200 Tap Density Tester (Pharma Test).

[2] = Bulk density (PT-SV100 Scott Volumeter)
Source text: The bulk density, also called apparent density, can be defined as the ratio of the mass to the volume of an untapped powder sample, as "poured". The bulk density is given in grams per millilitre (g/ml) and is typically calculated by "pouring" a known mass of powder into a graduated cylinder.
as §1, §2

Flow rate = assay: Flow rate
[3] = Carr index (compressibility) calculated from bulk and tapped density
Protocol: The Carr index, also called Carr's index or compressibility index, is calculated according to the following formula: Carr index = (Density (tapped)−Density (bulk))/(Density (tapped)) × 100 [formula]
Free flowing powders have smaller values of the Carr index than poor flowing powders. In general, a Carr index greater than 25 is considered to be an indication of poor flowability, and below 15, of good flowability.
(§3) The relationship between Carr index and/or Hausner ratio with powder flowability is well recognized in the art, for example, as disclosed by M. E. Aulton, in "Powder flow", chapter 12 of the well-recognized reference book in pharmaceutical technology "Aulton's Pharmaceutics. The design and manufacture of medicines", Fifth Edition 2018, M.E. Aulton and K.M.G. Taylor, Editors, Elsevier Ltd, as summarized in the following table: […]

Particle size by sieving = conditions: compacted product passed through a sieve of 800 micron opening; 100% of the particles
Source text: The compactor was connected to a rotor granulator for milling the outcoming compacted plaque. The granulation speed was fixed to 70 r.p.m. and the obtained granulate was passed through a sieve of 800 micron opening.

[4] = Aspect (visual appearance) of the powder or granules
Source text: It can be observed that the non-compacted material has damp and agglomerated appearance, whereas the compacted product has dry, non-agglomerated, flowable appearance.

[5] = Hausner ratio calculated from bulk and tapped density
Protocol: Hausner ratio is also predictive of powder flow, and is calculated according to the following formula: Hausner ratio = (Density (tapped))/(Density (bulk)) […] [formula]
In this case, a Hausner ratio greater than 1.34 is generally considered to be an indication of poor flowability.
as §3

[6] = Angle of repose from radius and height of the poured cone; conditions: tan^-1 (height/radius) of the cone after pouring
Source text: The "angle of repose" is another parameter for indirectly quantifying powder flowability. It is the angle at which a material will rest on a stationary heap, specifically, is the angle formed by the heap slope and the horizontal plane. It may be calculated by different methods, commonly, just pouring the material on a flat surface. It also can be calculated as "drained angle of repose", as the angle measured on the internal conical face of a material which has been formed when drained from an orifice of a flat-bottomed container to the horizontal. A dynamic angle of repose can also be used, which is the angle to the horizontal of the free surface formed in a relatively slowly rotating drum (Aulton, op. cit., pg. 197).
In this case, the lower the value of the angle of repose, the higher the flowability of the material. It is generally considered that an angle of repose higher than 45 correlates with poor flowability, whereas an angle of repose under 30 correlates with excellent flowability.
The angle of repose was determined by measuring the radius and the height of the cone formed after pouring the powder, using the formula tan^-1 (height/radius).

[7] = Handling observed during manufacture of capsules and tablets
Protocol: All ingredients were added to a Turbula mixer, blended during 15 minutes, and filled into capsules of 00 size.
Furthermore, the powder mixture was easily blended and good homogeneity was easily achieved, without segregation of the ingredients.
All ingredients were mixed in Turbula mixer during about 15 minutes and compressed into tablets.
The powder mixture was easily blended and had good homogeneity, without segregation of the ingredients.

[8] = general description of the starting material, 'for example' value

Tapped density [1] | tapped (or compacted) density [1, 8] | Bulk density [2] | bulk (or apparent) density [2, 8] | Bulk density ([2]; listed as coenzyme Q10 raw material) | Compressibility (Carr Index) [3] | particle size (Particle size by sieving) | Hausner ratio [5] | Angle of repose [6] | Bulk density ([2]; listed as compacted coenzyme Q10) | Compound | Flow rate (Flow rate) | Aspect [4] | flowability and adherence during tablet preparation ([7]; 30 mg tablets by direct compression, Turbula mixer about 15 minutes) | flowability and adherence during capsule preparation ([7]; 100 mg hard gelatin capsules, Turbula mixer 15 minutes)
0.34 g/mL | about 0.34 mg/ml | 0.22 g/mL | about 0.22 mg/ml | 0.22 g/mL | 35.3% | less than 800 microns | 1.55 | 45° | – | COC1=C(OC)C(=O)C(C/C=C(\C)CC/C=C(\C)CC/C=C(\C)CC/C=C(\C)CC/C=C(\C)CC/C=C(\C)CC/C=C(\C)CC/C=C(\C)CC/C=C(\C)CCC=C(C)C)=C(C)C1=O [Non-compacted CoQ10 (starting material), 2-[(2E,6E,10E,14E,18E,22E,26E,30E,34E)-3,7,11,15,19,23,27,31,35,39-Decamethyltetraconta-2,6,10,14,18,22,26,30,34,38-decaenyl]-5,6-dimethoxy-3-methylcyclohexa-2,5-diene-1,4-dione] | Slow, the material sticks to the walls | Orange powder with damp, agglomerated appearance, hygroscopic | – | –
0.57 g/mL | – | 0.52 g/mL | – | – | 8.78% | less than 800 microns | 1.10 | 10° | 0.52 g/mL | COC1=C(OC)C(=O)C(C/C=C(\C)CC/C=C(\C)CC/C=C(\C)CC/C=C(\C)CC/C=C(\C)CC/C=C(\C)CC/C=C(\C)CC/C=C(\C)CC/C=C(\C)CCC=C(C)C)=C(C)C1=O [Compacted CoQ10 (Example 1), 2-[(2E,6E,10E,14E,18E,22E,26E,30E,34E)-3,7,11,15,19,23,27,31,35,39-Decamethyltetraconta-2,6,10,14,18,22,26,30,34,38-decaenyl]-5,6-dimethoxy-3-methylcyclohexa-2,5-diene-1,4-dione] | Three times faster than for uncompacted CoQ10. The material does not stick to the walls | Orange granules without agglomerates, highly flowable and with dry appearance | good flowability and did not adhere neither to the walls of vessels and mixers nor to the punches and dies of the tableting machine | good flowability and did not adhere to the walls of vessels and mixers
